Measurements: patent publication US20220226265A1, “METHODS OF CONTROLLING MYOCARDIAL BLOOD FLOW” (UNIVERSITY OF LOUISVILLE RESEARCH FOUNDATION, INC., priority 2021, published 2022)

Tested on: wild type and Kvβ-null mice
Assay: Echocardiographic cardiac function during intravenous norepinephrine infusion
Assay type: in vivo, mouse
Settings: for ejection fraction: after 1 min of 5 μg/kg·min−1 norepinephrine infusion
From the text: In vivo measurements of cardiac function and myocardial blood flow: Mice were anesthetized with 3% isoflurane and supplemental O2, administered (1 L·min^−1) in a small induction chamber. After induction, the mice were placed on a controlled heating table in a supine position. Anesthesia was maintained throughout the procedure by delivery of 1-2% isoflurane and supplemental O2 (0.5 L·min^−1). The extremities were secured to the surgical table by tape and a lubricated probe was inserted rectally to monitor body temperature. The chest, neck, and hind limb hair were then removed using a depilatory agent, the skin was rinsed with warm water, and the neck area was disinfected with 70% ethanol/betadine and an incision (10-15 mm) was made at the right side of the neck. For infusion of contrast agent and drugs, the jugular vein was isolated using blunt forceps and catheterized with sterilized PE-50 polyethylene tubing (pre-filled with heparinized saline; 50 U·ml^−1). The jugular vein catheter was then secured in place with two sutures. For continuous measurement of arterial blood pressure, a small incision was made on the hind limb and the femoral artery was isolated and cannulated with a 1.2 F pressure catheter (SciSense, Transonic Systems, Inc., Ithaca, N.Y., USA) connected to a PowerLab data acquisition system (ADInstruments, Colorado Springs, Colo., USA) through a SP200 pressure interface unit designed to measure arterial blood pressure and heart rate. After cannulation, the pressure catheter was advanced 10 mm into the abdominal aorta.
Ultrasound gel was centrifuged in a 60 mL syringe (1500×g, 10 min) to remove air bubbles, warmed to 37° C., and applied to the chest. Cardiac function was measured by M-mode transthoracic echocardiographic imaging of the parasternal short axis view, mid-papillary level using a Vevo 2100 high resolution echocardiography imaging system (FujiFilm VisualSonics, Toronto, ON, Canada). Contrast echocardiography was performed by using Siemens ultrasound imaging system (Sequoia Acuson C512; Siemens Medical Systems USA Inc., Mountain View, Calif.) with a high-frequency linear-array probe (15L8) held in place by a 3D railing system. For myocardial contrast echocardiography (MCE), we administered lipid-shelled microbubbles, which were freshly prepared by sonication of a decafluorobutane gas-saturated aqueous suspension of distearoylphosphatidylcholine (2 mg/mL) and polyoxyethylene-40-stearate (1 mg/mL). The contrast agent was intravenously infused via the jugular vein catheter at a rate of ˜5×10^5 microbubbles·min-1 (20 μl·min^−1) and MCE was performed by administering a multi-pulse contrast-specific pulse sequence to detect non-linear microbubble contrast signal at low mechanical index (MI=0.18-0.25). Data were acquired during and after a 1.9 MI pulse sequence to destruct microbubbles within the acoustic field, followed by imaging of replenished contrast signal.
Measurements of cardiac function, myocardial perfusion, and arterial blood pressure were performed at baseline, after administration of hexamethonium (5 mg·kg^−1, i.v.), and following successive doses of norepinephrine (0.5, 1.0, 2.5, and 5.0 μg·kg^−1·min^−1; 3 min duration each dose, followed by 3-5 min washout). […] All data analyses and calculations of cardiac workload (double product of mean arterial pressure and heart rate), cardiac function, myocardial blood flow, and mean arterial pressure were performed offline. For pressure measurements, we used Lab Chart 8 software (ADInstruments, Colorado Springs, Colo., USA). Left ventricular volume at end diastole (LVEDV) and end systole (LVESV), as well left ventricular internal diameter at end diastole (LVID,d) and end systole (LVID,s) were measured at steady state after drug infusions. […]

[1] = NE 0.5 μg/kg·min−1 i.v., Kvβ1.1−/− mice
[2] = NE 0.5 μg/kg·min−1 i.v., Kvβ2−/− mice
[3] = NE 0.5 μg/kg·min−1 i.v., SM22α-rtTA mice
[4] = NE 0.5 μg/kg·min−1 i.v., SM22α-rtTA:TRE-Kvβ1 mice
[5] = NE 0.5 μg/kg·min−1 i.v., Wild type (129SvEv) mice
[6] = NE 0.5 μg/kg·min−1 i.v., Wild type (C57B16N) mice
[7] = NE 1 μg/kg·min−1 i.v., Kvβ1.1−/− mice
[8] = NE 1 μg/kg·min−1 i.v., Kvβ2−/− mice
[9] = NE 1 μg/kg·min−1 i.v., SM22α-rtTA mice
[10] = NE 1 μg/kg·min−1 i.v., SM22α-rtTA:TRE-Kvβ1 mice
[11] = NE 1 μg/kg·min−1 i.v., Wild type (129SvEv) mice
[12] = NE 1 μg/kg·min−1 i.v., Wild type (C57B16N) mice
[13] = NE 2.5 μg/kg·min−1 i.v., Kvβ1.1−/− mice
[14] = NE 2.5 μg/kg·min−1 i.v., Kvβ2−/− mice
[15] = NE 2.5 μg/kg·min−1 i.v., SM22α-rtTA mice
[16] = NE 2.5 μg/kg·min−1 i.v., SM22α-rtTA:TRE-Kvβ1 mice
[17] = NE 2.5 μg/kg·min−1 i.v., Wild type (129SvEv) mice
[18] = NE 2.5 μg/kg·min−1 i.v., Wild type (C57B16N) mice
[19] = NE 5.0 μg/kg·min−1 i.v., Kvβ1.1−/− mice
[20] = NE 5.0 μg/kg·min−1 i.v., Kvβ2−/− mice
[21] = NE 5.0 μg/kg·min−1 i.v., SM22α-rtTA mice
[22] = NE 5.0 μg/kg·min−1 i.v., SM22α-rtTA:TRE-Kvβ1 mice
[23] = NE 5.0 μg/kg·min−1 i.v., Wild type (129SvEv) mice
[24] = NE 5.0 μg/kg·min−1 i.v., Wild type (C57B16N) mice

## NC[C@H](O)c1ccc(O)c(O)c1 [norepinephrine]
[1]
  EDV (left ventricular end diastolic volume): 53.5 ± 4.9 µL
  EF (ejection fraction): 61.4 ± 4.2%
  ESV (left ventricular end systolic volume): 21.3 ± 3.9 µL
  FS (fractional shortening): 32.5 ± 2.8%
  SV (stroke volume): 32.2 ± 1.8 µL
[2]
  EDV (left ventricular end diastolic volume): 48.3 ± 2.7 µL
  EF (ejection fraction): 71.9 ± 3.3%
  ESV (left ventricular end systolic volume): 13.6 ± 1.6 µL
  FS (fractional shortening): 40.7 ± 2.8%
  SV (stroke volume): 34.7 ± 2.4 µL
[3]
  EDV (left ventricular end diastolic volume): 43.6 ± 2.9 µL
  EF (ejection fraction): 82.3 ± 3.3%
  ESV (left ventricular end systolic volume): 8.1 ± 2.0 µL
  FS (fractional shortening): 50.9 ± 3.6%
  SV (stroke volume): 35.4 ± 1.6 µL
[4]
  EDV (left ventricular end diastolic volume): 45.9 ± 3.8 µL
  EF (ejection fraction): 62.7 ± 6.0%
  ESV (left ventricular end systolic volume): 17.7 ± 3.6 µL
  FS (fractional shortening): 33.9 ± 4.1%
  SV (stroke volume): 28.2 ± 2.7 µL
[5]
  EDV (left ventricular end diastolic volume): 50.5 ± 7.8 µL
  EF (ejection fraction): 63.5 ± 2.5%
  ESV (left ventricular end systolic volume): 19.4 ± 3.7 µL
  FS (fractional shortening): 34.2 ± 1.9%
  SV (stroke volume): 31.2 ± 4.2 µL
[6]
  EDV (left ventricular end diastolic volume): 57.8 ± 2.3 µL
  EF (ejection fraction): 71.64 ± 2.2%
  ESV (left ventricular end systolic volume): 16.37 ± 1.4 µL
  FS (fractional shortening): 40.48 ± 2.0%
  SV (stroke volume): 41.46 ± 2.3 µL
[7]
  EDV (left ventricular end diastolic volume): 47.6 ± 8.1 µL
  EF (ejection fraction): 70.9 ± 3.1%
  ESV (left ventricular end systolic volume): 14.1 ± 3.4 µL
  FS (fractional shortening): 40.1 ± 2.4%
  SV (stroke volume): 33.5 ± 5.2 µL
[8]
  EDV (left ventricular end diastolic volume): 48.7 ± 4.6 µL
  EF (ejection fraction): 73.1 ± 1.8%
  ESV (left ventricular end systolic volume): 13.3 ± 1.8 µL
  FS (fractional shortening): 41.4 ± 1.6%
  SV (stroke volume): 42.7 ± 8.2 µL
[9]
  EDV (left ventricular end diastolic volume): 49.4 ± 2.9 µL
  EF (ejection fraction): 80.6 ± 4.2%
  ESV (left ventricular end systolic volume): 10.0 ± 2.6 µL
  FS (fractional shortening): 49.6 ± 4.3%
  SV (stroke volume): 39.4 ± 1.8 µL
[10]
  EDV (left ventricular end diastolic volume): 46.9 ± 4.9 µL
  EF (ejection fraction): 74.2 ± 3.9%
  ESV (left ventricular end systolic volume): 12.7 ± 3.2 µL
  FS (fractional shortening): 42.7 ± 3.3%
  SV (stroke volume): 34.2 ± 2.0 µL
[11]
  EDV (left ventricular end diastolic volume): 46.7 ± 7.4 µL
  EF (ejection fraction): 70.7 ± 5.3%
  ESV (left ventricular end systolic volume): 14.7 ± 4.3 µL
  FS (fractional shortening): 40.1 ± 4.6%
  SV (stroke volume): 32.0 ± 3.7 µL
[12]
  EDV (left ventricular end diastolic volume): 61.6 ± 3.2 µL
  EF (ejection fraction): 72.40 ± 1.2%
  ESV (left ventricular end systolic volume): 17.12 ± 1.3 µL
  FS (fractional shortening): 40.97 ± 1.0%
  SV (stroke volume): 44.52 ± 2.3 µL
[13]
  EDV (left ventricular end diastolic volume): 41.5 ± 8.8 µL
  EF (ejection fraction): 78.2 ± 2.0%
  ESV (left ventricular end systolic volume): 9.4 ± 2.7 µL
  FS (fractional shortening): 46.0 ± 1.8%
  SV (stroke volume): 32.1 ± 6.1 µL
[14]
  EDV (left ventricular end diastolic volume): 52.8 ± 3.5 µL
  EF (ejection fraction): 70.1 ± 2.6%
  ESV (left ventricular end systolic volume): 15.7 ± 1.6 µL
  FS (fractional shortening): 39.0 ± 2.2%
  SV (stroke volume): 37.1 ± 2.8 µL
[15]
  EDV (left ventricular end diastolic volume): 51.5 ± 2.8 µL
  EF (ejection fraction): 77.4 ± 5.1%
  ESV (left ventricular end systolic volume): 12.2 ± 3.1 µL
  FS (fractional shortening): 46.8 ± 4.8%
  SV (stroke volume): 39.3 ± 2.1 µL
[16]
  EDV (left ventricular end diastolic volume): 47.5 ± 5.5 µL
  EF (ejection fraction): 74.2 ± 5.7%
  ESV (left ventricular end systolic volume): 13.2 ± 4.3 µL
  FS (fractional shortening): 43.1 ± 4.8%
  SV (stroke volume): 34.3 ± 1.4 µL
[17]
  EDV (left ventricular end diastolic volume): 48.8 ± 6.0 µL
  EF (ejection fraction): 67.9 ± 2.7%
  ESV (left ventricular end systolic volume): 16.0 ± 2.7 µL
  FS (fractional shortening): 37.4 ± 2.1%
  SV (stroke volume): 32.8 ± 3.6 µL
[18]
  EDV (left ventricular end diastolic volume): 62.8 ± 3.7 µL
  EF (ejection fraction): 72.88 ± 1.8%
  ESV (left ventricular end systolic volume): 17.22 ± 1.7 µL
  FS (fractional shortening): 41.47 ± 1.5%
  SV (stroke volume): 45.63 ± 2.6 µL
[19]
  EDV (left ventricular end diastolic volume): 45.7 ± 11.9 µL
  EF (ejection fraction): 79.1 ± 2.7%
  ESV (left ventricular end systolic volume): 10.4 ± 3.4 µL
  FS (fractional shortening): 47.1 ± 2.4%
  SV (stroke volume): 35.3 ± 8.5 µL
[20]
  EDV (left ventricular end diastolic volume): 54.6 ± 4.5 µL
  EF (ejection fraction): 67.5 ± 3.8%
  ESV (left ventricular end systolic volume): 18.5 ± 3.1 µL
  FS (fractional shortening): 37.3 ± 3.0%
  SV (stroke volume): 36.1 ± 2.3 µL
[21]
  EDV (left ventricular end diastolic volume): 56.9 ± 3.9 µL
  EF (ejection fraction): 77.7 ± 5.8%
  ESV (left ventricular end systolic volume): 13.4 ± 3.9 µL
  FS (fractional shortening): 48.1 ± 6.0%
  SV (stroke volume): 43.5 ± 3.1 µL
[22]
  EDV (left ventricular end diastolic volume): 49.3 ± 5.7 µL
  EF (ejection fraction): 69.9 ± 5.0%
  ESV (left ventricular end systolic volume): 15.6 ± 3.9 µL
  FS (fractional shortening): 39.3 ± 4.2%
  SV (stroke volume): 33.7 ± 2.6 µL
[23]
  EDV (left ventricular end diastolic volume): 56.4 ± 5.0 µL
  EF (ejection fraction): 69.1 ± 2.4%
  ESV (left ventricular end systolic volume): 17.3 ± 1.6 µL
  FS (fractional shortening): 38.3 ± 1.9%
  SV (stroke volume): 39.1 ± 4.1 µL
[24]
  EDV (left ventricular end diastolic volume): 66.1 ± 4.4 µL
  EF (ejection fraction): 73.65 ± 2.4%
  ESV (left ventricular end systolic volume): 17.85 ± 2.3 µL
  FS (fractional shortening): 42.39 ± 2.1%
  SV (stroke volume): 48.26 ± 2.7 µL
Kvβ2−/− mice
  ejection fraction: 71±1.7%
WT animals
  ejection fraction: 84±2.2%
